Test results as given in US12398121B2 (Nuvation Bio Inc., priority 2018, dated 2025).

Columns and labels:
22RV1 cells = test: Cell proliferation assay (CellTiter Glo), 22RV1; format: cell-based; conditions: Homo sapiens, 22Rv1, 72 h; cell growth inhibition, three days of treatment; read-out: 22RV1 IC50
Human recombinant PARP2 = Human recombinant PARP2 (Homo sapiens, UniProt Q9UGN5); test: RBC HotSpot PARP2 radioisotope-based filter binding assay; format: biochemical; conditions: 2.5 nM enzyme, histone H3, 10 μM 32P-NAD+; read-out: PARP2 IC50
Chain of Human recombinant PARP2 (Q9UGN5 whole entry): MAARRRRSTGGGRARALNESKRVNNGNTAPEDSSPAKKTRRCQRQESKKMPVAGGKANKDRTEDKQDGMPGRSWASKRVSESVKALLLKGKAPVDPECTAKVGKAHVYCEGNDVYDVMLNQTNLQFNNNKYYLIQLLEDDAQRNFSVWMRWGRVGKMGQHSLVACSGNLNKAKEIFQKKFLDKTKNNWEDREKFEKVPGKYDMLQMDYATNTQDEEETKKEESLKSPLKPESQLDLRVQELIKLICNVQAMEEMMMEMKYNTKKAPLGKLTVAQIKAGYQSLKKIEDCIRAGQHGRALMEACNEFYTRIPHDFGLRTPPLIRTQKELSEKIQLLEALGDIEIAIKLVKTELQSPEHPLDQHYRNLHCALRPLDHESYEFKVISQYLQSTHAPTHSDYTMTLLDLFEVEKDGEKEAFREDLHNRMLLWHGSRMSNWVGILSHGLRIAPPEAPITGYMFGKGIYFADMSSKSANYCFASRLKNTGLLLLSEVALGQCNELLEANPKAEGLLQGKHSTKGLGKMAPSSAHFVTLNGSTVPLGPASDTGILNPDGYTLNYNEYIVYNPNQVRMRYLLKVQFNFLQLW
In short: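 Radiometric filter-binding assay: 2.5 nM recombinant enzyme with 20 μM histone (H4 for PARP1, H3 for PARP2) and activated DNA, pH 8.0, 1% DMSO. 20 min preincubation, then 10 μM ^32P-NAD^+ for 2 h at room temperature; filtered radioactivity gives IC50 fits.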

**Q.** How did the IC50 (22RV1 cells) turn out when `O=C(c1ccc(OCCN2CCN(C(=O)c3cc(Cc4n[nH]c(=O)c5ccccc45)ccc3F)CC2)cc1)c1c(-c2ccc(O)cc2)sc2cc(O)ccc12` [Compound 2.13, 4-(4-fluoro-3-(4-(2-(4-(6-hydroxy-2-(4-hydroxyphenyl)benzo[b]thiophene-3-carbonyl)phenoxy)ethyl)piperazine-1-carbonyl)benzyl)phthalazin-1(2H)-one] was run?
**A.** 1690 nM

**Q.** What about the IC50 (Human recombinant PARP2) of the same compound?
**A.** 0.5 nM
